How the values were obtained:
[1] = Measurement of siRNA encapsulation (SYBR Gold fluorescence); format: physicochemical; details: FVII siRNA in LNP
Description: The lipid nanoparticles (LNPs) were formed by mixing equal volumes of lipids dissolved in alcohol with siRNA dissolved in a citrate buffer by an impinging jet process. The lipid solution contains a cationic lipid compound of the invention, a helper lipid (cholesterol), an optional neutral lipid (DSPC) and a stealth lipid (S010, S024, S027, or S031) at a concentration of 8-16 mg/mL with a target of 12 mg/mL in an alcohol. The siRNA to total lipid ratio is approximately 0.05 (wt/wt). Where a LNP formulation contains four lipid components, the molar ratios of the lipids ranges from 20 to 70 mole percent for the cationic lipid with a target of 40-60, the mole percent of helper lipid ranges from 20 to 70 with a target of 30 to 50, the mole percent of neutral lipid ranges from 0-30, the mole percent of PEG lipid has a range from 1 to 6 with a target of 2 to 5. The concentration of siRNA solution ranges from 0.7 to 1.0 mg/mL with a target of 0.8 to 0.9 mg/mL in a sodium citrate: sodium chloride buffer pH 4-6, with a target of 4.5-5.5. The LNPs are formed by mixing equal volumes of lipid solution in ethanol with siRNA dissolved in a citrate buffer by an impinging jet process through a mixing device with ID ranging from 0.25 to 2.0 mm at a flow rate from 10 to 640 mL/min. The mixed LNP solution is held at room temperature for 0-24 hrs prior to a dilution step. The solution is then concentrated and diafiltered with suitable buffer by ultrafiltration process using membranes with a MW cutoff from 30 to 500 KD. The final product is sterile filtered and stored at 4° C.
SYBR Gold flourescence reagent is used for the determination of siRNA encapsulation in the DLP's. DLP's with and without triton x-100 are used to determine the free siRNA and total siRNA amounts. DLP's samples with and without triton X-100 were excited at 485 nm and flourescence emission is measured at 530 nm. Encapsulation efficiency is calculated based on the following formula: Encapsulation efficiency: [(free siRNA concentration−total siRNA concentration)/(total siRNA concentration)]×100% Encapsulation Data

[2] = Measurement of mRNA encapsulation in lipid nanoparticles (Quant-iT Ribogreen); format: physicochemical; details: Leptin mRNA in LNP
Description: All equipment and disposable supplies are certified free of RNase activity by the manufacturer or rendered RNase free by use of the RNaseZap reagent (LifeTechnologies). mRNA is encapsulated at a cationic lipid amine to mRNA phosphate (N:P) molar ratio of 4:1. Lipids (cationic lipid, DSPC, cholesterol and lipidated PEG or stealth lipid) are dissolved in ethanol. The molar ratios are 40:10:38:2, respectively. The mixture is sonicated briefly, then gently agitated for 5 minutes and then maintained at 37° C. until use. mRNA is exchanged into citrate buffer pH 5.8-6.0 by use of Amicon Ultra-15 centrifugal concentrators, and the final concentration is adjusted to 0.5 mg/ml and held at 37° C. until use. An equal volume of lipids in ethanol, mRNA in citrate buffer, and citrate buffer alone are drawn into disposable syringes.
Tubing leading from syringes containing lipids and mRNA are attached to the T junction, and tubing leading from the syringe containing citrate buffer alone is paired with the tubing exiting the T-junction over a collection vessel containing a stir bar on an active stir plate. Syringes are placed in a syringe pump set to expel contents at a flow rate of 1 ml per minute. The pump is activated, and the collected mRNA in lipid nanoparticles is transferred to SnakeSkin dialysis tubing (10,000 MWCO, Thermo Scientific). Material is dialyzed against RNAse- and pyrogen-free 1× phosphate buffered saline overnight at 4° C.
Percent encapsulation of mRNA in lipid nanoparticles is determined using the Quant-iT Ribogreen RNA Assay kit (Life Technologies). The LNP-mRNA suspension is assayed in buffer (mRNA outside the particle), and buffer plus Triton X-100 detergent (total mRNA). The difference calculated is the mRNA inside the particle. Prepare a 1000 ng/mL stock from the RNA provided in the kit and use this to generate a standard curve (0 ng/ml, 15.63-1000 ng/ml) in TE and TE+0.75% Triton X-100. Prepare LNP-mRNA samples in TE buffer and TE buffer+0.75% Triton X-100 with appropriate dilution so that reading is in the range of standard curve (400-2,000 fold). In a 384-well plate (Costar non-treated #3573) add 0.04 ml of standard (in duplicate) or sample (in triplicate) per well. Dilute Ribogreen reagent 240-fold in TE buffer and add 0.06 ml per well. Mix contents of wells and measure fluorescence (excitation=480 nm, emission=520 nm). Subtract background values (no RNA) from standard and test sample values and determine the concentrations of RNA in the samples using the standard curves. Determine the percent encapsulation of the sample by dividing the difference in concentrations between sample+triton and sample in buffer alone by the sample+triton concentration.

[3] = Particle size of the lipid nanoparticle (Z-average, dynamic light scattering, Malvern Zetasizer); format: physicochemical; details: RSV-F replicon RNA LNP, DLS; for Size 1st IM: 1st immunization; for Size 2nd IM: 2nd immunization
Description: The lipid nanoparticles have a size of about 1 to about 2,500 nm, about 10 to about 1,500 nm, about 20 to about 1,000 nm, in a sub-embodiment about 50 to about 600 nm, in a sub-embodiment about 50 to about 400 nm, in a sub-embodiment about 50 to about 250 nm, and in a sub-embodiment about 50 to about 150 nm. Unless indicated otherwise, all sizes referred to herein are the average sizes (diameters) of the fully formed nanoparticle, as measured by dynamic light scattering on a Malvern Zetasizer. The nanoparticle sample is diluted in phosphate buffered saline (PBS) so that the count rate is approximately 200-400 kcts. The data is presented as a weighted average of the intensity measure.
Unless indicated otherwise, all particle size measurements referred to in Table 3 are the Z-average particle size of the fully formed nanoparticle, as measured by dynamic light scattering on a Malvern Zetasizer. The nanoparticle sample was diluted in phosphate buffered saline (PBS) so that the count rate is approximately 200-400 kcts.
(§1) % entrapment (% E), Concentration of RNA (Conc), particle size measured by DLS, and polydispersity reported by DLS of LNPs prepared with different cationic lipids

[4] = Polydispersity index (PDI) by dynamic light scattering; format: physicochemical; details: RSV-F replicon RNA LNP, DLS; for PDI 1st IM: 1st immunization; for PDI 2nd IM: 2nd immunization
Description: Unless indicated otherwise, all PDIs referred to herein are the PDI of the fully formed nanoparticle, as measured by dynamic light scattering on a Malvern Zetasizer. The nanoparticle sample was diluted in phosphate buffered saline (PBS) so that the count rate was approximately 200-400 kcts. The data is presented in Table 3 as a weighted average of the intensity measure.
as §1

RSV F protein = test: RSV immunogenicity: F-specific IgG titers after IM vaccination with liposome-formulated self-replicating RNA; format: in vivo; details: IM days 0 and 21, BALB/c mice, two weeks after two immunizations
[5] = Percentage of encapsulated RNA and RNA concentration of replicon liposomes (Quant-iT RiboGreen); format: physicochemical; details: for %E (% entrapment) 1st IM / Conc (Concentration of RNA) 1st IM: RSV-F replicon RNA LNP prepared for 1st immunization; for %E (% entrapment) 2nd IM / Conc (Concentration of RNA) 2nd IM: RSV-F replicon RNA LNP prepared for 2nd immunization
Description: RNA was encapsulated in liposomes made essentially by the method of Geall et al. (2012) PNAS vol. 109 (36): 14604-14609, Jeffs et al. (2005) Pharmaceutical Research 22 (3):362-372, and Maurer et al. (2001) Biophysical Journal, 80: 2310-2326 The liposomes were made of 10% DSPC (zwitterionic), 40% cationic lipid, 48% cholesterol and 2% PEG-conjugated DMG (2 kDa PEG). These proportions refer to the % moles in the total liposome.
Briefly, lipids were dissolved in ethanol (2 ml), a RNA replicon was dissolved in buffer (2 ml, 100 mM sodium citrate, pH 6) and these were mixed with 2 ml of buffer followed by 1 hour of equilibration. The mixture was then dialized overnight against 1×PBS. The resulting product contained liposomes, with ˜70-95% encapsulation efficiency. For in vitro and in vivo experiments formulations were diluted to the required RNA concentration with 1×PBS.
The percentage of encapsulated RNA and RNA concentration were determined by Quant-iT RiboGreen RNA reagent kit (Invitrogen), following manufacturer's instructions. The ribosomal RNA standard provided in the kit was used to generate a standard curve. Liposomes were diluted 10× or 100× in 1×TE buffer (from kit) before addition of the dye. Separately, liposomes were diluted 10× or 100× in 1×TE buffer containing 0.5% Triton X before addition of the dye (to disrupt the liposomes and thus to assay total RNA). Thereafter an equal amount of dye was added to each solution and then ˜180 μL of each solution after dye addition was loaded in duplicate into a 96 well tissue culture plate. The fluorescence (Ex 485 nm, Em 528 nm) was read on a microplate reader. All liposome formulations were dosed in vivo based on the encapsulated amount of RNA.
as §1

Compound	% encapsulation siRNA FVII [1] [%]	% encapsulation mRNA Leptin [2] [%]	Size 1st IM [3] [nm]	Size 2nd IM [3] [nm]	PDI 1st IM [4]	PDI 2nd IM [4]	Immunogenicity (2wp2; log10 IgG titers) (RSV F protein; 0.1 ng replicon RNA) [log10 IgG titers]	Immunogenicity (2wp2; log10 IgG titers) (RSV F protein; 1 ng replicon RNA) [log10 IgG titers]	%E (% entrapment) 1st IM [5] [%]	Conc (Concentration of RNA) 1st IM [5] [ng/mL]	%E (% entrapment) 2nd IM [5] [%]	Conc (Concentration of RNA) 2nd IM [5] [ng/mL]
CCCCC/C=C\C/C=C\CCCCCCCC(=O)OCC(COC(=O)CCCCCCC/C=C\C/C=C\CCCCC)COC(=O)C1CCN(CC2CC2)CC1 [Example 9, (9Z,9′Z,12Z,12′Z)-2-(((1-(cyclopropylmethyl)piperidine-4-carbonyl)oxy)methyl)propane-1,3-diyl bis(octadeca-9,12-dienoate)]	86.7	–	–	–	–	–	–	–	–	–	–	–
CCCCC/C=C\C/C=C\CCCCCCCC(=O)OCC(COC(=O)CC(CCCCCCCC)CCCCCCCC)COC(=O)OCCCN(CC)CC (stereo not drawn) [Example 22, (9Z,12Z)-3-(((3-(diethylamino)propoxy)carbonyl)oxy)-2-(((3-octylundecanoyl)oxy)methyl)propyl octadeca-9,12-dienoate]	86.1	–	–	–	–	–	–	–	–	–	–	–
CCCCC/C=C\C/C=C\CCCCCCCC(=O)OCC(COC(=O)CCCCCCCC(CCCCC)CCCCC)COC(=O)OCCCN(CC)CC (stereo not drawn) [Example 24, (9Z,12Z)-3-(((3-(diethylamino)propoxy)carbonyl)oxy)-2-(((9-pentyltetradecanoyl)oxy)methyl)propyl octadeca-9,12-dienoate]	89.1	86.6	–	–	–	–	–	–	–	–	–	–
CCCCC/C=C\C/C=C\CCCCCCCC(=O)OCC(COC(=O)CCC(OCCCCCCCC)OCCCCCCCC)COC(=O)C1CCN(CC2CC2)CC1 (stereo not drawn) [Example 34, 3-((4,4-bis(octyloxy)butanoyl)oxy)-2-(((9Z,12Z)-octadeca-9,12-dienoyloxy)methyl)propyl 1-(cyclopropylmethyl)piperidine-4-carboxylate]	–	97.1	136.2	135.4	0.116	0.11	3.73	4.36	75.5	9240	79.19	11495
CCCCC/C=C\C/C=C\CCCCCCCC(=O)OCC(COC(=O)CCC(OCCCCCCCC)OCCCCCCCC)COC(=O)C1CCN(C)C1 (stereo not drawn) [Example 35, 3-((4,4-bis(octyloxy)butanoyl)oxy)-2-(((9Z,12Z)-octadeca-9,12-dienoyloxy)methyl)propyl 1-methylpyrrolidine-3-carboxylate]	–	97.3	135.2	137.5	0.119	0.108	4.53	4.86	93.46	10059	93.9	9937
CCCCC/C=C\C/C=C\CCCCCCCC(=O)OCC(COC(=O)CCC(OCCCCCCCC)OCCCCCCCC)COC(=O)C1(C)CCN(C)CC1 (stereo not drawn) [Example 40, 3-((4,4-bis(octyloxy)butanoyl)oxy)-2-(((9Z,12Z)-octadeca-9,12-dienoyloxy)methyl)propyl 1,4-dimethylpiperidine-4-carboxylate]	–	97.2	141	137.3	0.122	0.118	4.31	4.74	71.1	9461	78.05	9650
CCCCC/C=C\C/C=C\CCCCCCCC(=O)OCC(COC(=O)CCC(OCCCCCCCC)OCCCCCCCC)COC(=O)OC1CCN(C)CC1 (stereo not drawn) [Example 48, (9Z,12Z)-3-((4,4-bis(octyloxy)butanoyl)oxy)-2-(((((1-methylpiperidin-4-yl)oxy)carbonyl)oxy)methyl)propyl octadeca-9,12-dienoate]	–	92.8	137.9	134.2	0.091	0.075	4.58	5.02	86.169	9841	85.6	9665

— patent publication US10059655B2, “Lipids and lipid compositions for the delivery of active agents” (priority 2013, dated 2018)
